Data set [1] deals with SARS-CoV-2 S protein-mediated cell-cell fusion. As to the kind of experiment: microbe, parasite or virus in culture. The format is cell-based.
Data set [2] concerns 293FT/ACE2/TMPRSS2/DSP1-7 cells. Particulars: 2 days; for CC50: 293FT/ACE2/TMPRSS2/DSP1-7 cells; for CC50 / concentration above which cytotoxicity was exhibited: WST-8; for cell viability: at concentrations above 40 µM. (In general: Tetrazolium dyes change colour on reduction, which living cells bring about.)
The subject of data set [3] is SARS-CoV-2 NCGM-05-2N strain. Briefly: microbe, parasite or virus in culture. The format is cell-based.
Data set [4] relates to 293FT/ACE2/TMPRSS2/DSP1-7 cells. As to the kind of experiment: Cellular membrane fluidity with lipophilic pyrene probe. The data set is classed as cell-based. Particulars: for decrease in membrane fluidity: 2 days, compared with DMSO.
The subject of data set [5] is VeroE6^TMPRSS2 cells. As to the kind of experiment: WST-8 cytotoxicity assay in VeroE6^TMPRSS2 cells. The data set is classed as cell-based. The note with it: 3 days; for concentration above which cytotoxicity was exhibited: WST-8.
Data set [6] relates to 293FT/ACE2/TMPRSS2/DSP1-7 cells. As to the kind of experiment: Quantification of sphingolipids by LC-MS/MS in 293FT/ACE2/TMPRSS2/DSP1-7 cells. The data set is classed as cell-based. Particulars: for reduction in total sphingolipid levels: 40 µM, vs DMSO.
Another data set is described as follows: in vitro. The note with it: human.
Data set [7] has as its system VeroE6^TMPRSS2 cells. As to the kind of experiment: Quantification of sphingolipids by LC-MS/MS in VeroE6^TMPRSS2 cells. The note with it: 3 days. The format is cell-based.
For data set [8], the system named is HEK293FT cells expressing DSP1-7 and DSP8-11. The format is cell-based. Particulars: 2 days treatment.
The subject of data set [9] is ACE2. Briefly: Cell surface expression of ACE2 by flow cytometry. The data set is classed as cell-based. The note with it: 293FT/ACE2/TMPRSS2/DSP1-7 cells, 5 µM, compared with DMSO or 10 µM GT11.
For data set [10], the system named is ACE2. The data set is classed as cell-based. The note with it: 5 µM 4-HPR vs DMSO.
For data set [11] the following is noted: cited from earlier work.
[12] abbreviates: Severe acute respiratory syndrome coronavirus 2, 48 h.

Like-named read-outs stand apart in the source and are kept apart here.

A word on the EC50: it is the concentration needed to bring the measured effect to its halfway point. The low end stands for greater potency, the high end for weaker potency. For the molecule `CCCCCCCCCCCC(=O)N[C@@H](CO)C[C@H](O)c1ccccc1` [HPA12], in data set [1], the EC50 is > 40 µM and the antimembrane fusion activity result is given as “little or no antimembrane fusion activity”. For the same molecule, in data set [2], the CC50 is > 40 µM and the cell viability result is “unaffected”.
On to `CCCCCCCCCCCCCC1=C([C@H](O)[C@@H](CO)NC(=O)CCCCCCC)C1` [GT11], for which, in [1], the EC50 was > 10 µM and the antimembrane fusion activity entry is “little or no antimembrane fusion activity”. For the same molecule, the antiviral activity result in data set [3] is given as “no antiviral activity”. Besides, in data set [2], the CC50 came out at 20.3 µM and the “concentration above which cytotoxicity was exhibited” value was “above 20 µM”. Moreover, the membrane fluidity result in [4] (10 µM GT11 compared with 2.5 µM 4-HPR) is reported as “not significantly different”. Further, the “concentration above which cytotoxicity was exhibited” value in the data set on VeroE6^TMPRSS2 cells [5] is “above 10 µM”. The “ratio of saturated sphinganine-based lipids to total sphingolipids” value in data set [6] (10 µM GT11, 2 days) is given as ~10%.
`CCCCCCCCCCCCC/C=C/[C@@H](O)[C@H](CO)NC(=O)CCCCCCC` [C8-Cer, N-Octanoyl-d-erythro-sphingosine]: the cell-cell fusion efficiencies entry in [1] is “no significant differences”. Besides, the “decrease in ratio of saturated sphinganine-based lipids to total sphingolipids” value in data set [6] (10 µM C8-Cer with 5 µM 4-HPR, compared to 4-HPR treated cells) is given as “approximately 74%”.
On to `CCCCCCC(=O)CCCCCC/C=C/C[C@@H](O)[C@H](O)[C@@](N)(CO)C(=O)O` [Myriocin], for which the antimembrane fusion activity entry in data set [1] is given as “little or no antimembrane fusion activity”. In addition, the EC50 in data set [1] (setting [12]) is > 40 µM. In addition, the antiviral activity result in [3] is given as “did not exhibit antiviral activity”. Moreover, the CC50 in the data set “in vitro” is > 40 µM. Moreover, the “reduction in total sphingolipid levels” value was “approximately 50%” with VeroE6^TMPRSS2 cells [7] (vs DMSO) and “approximately 65%” in data set [6] (2 days). Also, the cell viability entry in data set [2] is “unaffected”. Also, the “effect on cell viability” value in the data set with VeroE6^TMPRSS2 cells [5] (at a concentration above 20 µM) was “no effect”.
Take `O[C@H]1[C@H](O)[C@@H](O)[C@@H]2O[C@@H]2[C@@H]1O` (racemic) [CBE, conduritol B epoxide]: in data set [1], the antimembrane fusion activity entry is reported as “little or no antimembrane fusion activity”. Besides, in [1] (setting [12]), the EC50 is > 40 µM. Also, the CC50 in the data set “in vitro” was > 40 µM. Also, the cell viability result in data set [2] was “unaffected”.
As for `CCCCCCCCCCCCCCCC(=O)NC(CN1CCOCC1)C(O)c1ccccc1` (stereo not drawn) [threo-PPMP, 1-phenyl-2-palmitoylamino-3-morpholino-1-propanol], the “inhibition of DSP activity (cell-cell fusion)” value in data set [1] is recorded as “more than 50%”. In [1] (setting [12]), this molecule had an EC50 of 8.7 µM. Also, the antiviral activity entry in [3] was “did not exhibit antiviral activity”. The molecule also displayed a CC50 in the data set “in vitro” of 25.6 µM. For the same molecule, the “reduction in total GlcCer levels” value in the data set on VeroE6^TMPRSS2 cells [7] (compared to DMSO) is “approximately 60%”. Moreover, the “luciferase activity in cells harboring preformed DSP1-7/DSP8-11 reporter complex” value in data set [8] is reported as “not affected”. For the same molecule, the “concentration above which cytotoxicity was exhibited” value (in [2]; in the data set on VeroE6^TMPRSS2 cells [5]) was “above 20 µM” in each case.
As to `CCCC[C@@H](C)[C@@H](OC(=O)C[C@@H](CC(=O)O)C(=O)O)[C@H](C[C@@H](C)C[C@H](O)CCCC[C@@H](O)C[C@H](O)[C@H](C)N)OC(=O)C[C@@H](CC(=O)O)C(=O)O` [Fumonisin B1], in [1], the EC50 was > 40 µM and the antimembrane fusion activity result is “little or no antimembrane fusion activity”. For the same molecule, in data set [2], the CC50 is > 40 µM and the cell viability result was “unaffected”. The “reduction in total sphingolipid levels” value in data set [6] (2 days) is ~79%.
As to `CCCCCCCCc1ccc(CCC(N)(CO)CO)cc1` [FTY720], the antimembrane fusion activity result in data set [1] is on record as “little or no antimembrane fusion activity”. Further, the EC50 in data set [1] (setting [12]) was > 5 µM. The CC50 in the data set “in vitro” was 12.5 µM. Besides, the “concentration above which cytotoxicity was exhibited” value in data set [2] is “above 10 µM”.
For `CC1=C(/C=C/C(C)=C/C=C/C(C)=C/C(=O)Nc2ccc(O)cc2)C(C)(C)CCC1` [4-HPR, N-(4-Hydroxyphenyl) retinamide], the “inhibition of DSP activity (cell-cell fusion)” value in [1] was “more than 50%”. Also, the EC50 in data set [1] (setting [12]) worked out at 4.1 µM; in data set [3] (Severe acute respiratory syndrome coronavirus 2, VeroE6/TMPRSS2), 4.4 µM. For the same molecule, the antiviral activity result in data set [3] was “no antiviral activity”. The “ACE2 expression levels on cell surface” value with ACE2 [9] is “No significant differences”. Further, the CC50 in “in vitro” was determined as 11.5 µM. For the same molecule, the “ratio of saturated sphinganine-based lipids to total sphingolipids” value is listed as 12% with VeroE6^TMPRSS2 cells [7] (1.3 µM); 17% in the data set on VeroE6^TMPRSS2 cells [7] (2.5 µM); 25% in the data set on VeroE6^TMPRSS2 cells [7] (5 µM); ~10% in [6] (2.5 µM 4-HPR, 2 days); ~20% in data set [6] (5 µM 4-HPR, 2 days). The “luciferase activity in cells harboring preformed DSP1-7/DSP8-11 reporter complex” value in data set [8] is “not affected”. Also, the “concentration above which cytotoxicity was exhibited” value (in [2]; with VeroE6^TMPRSS2 cells [5]) was “above 10 µM” throughout. The “ACE2 localization in the membrane microdomain” value in the data set on ACE2 [10] is given as “no dramatic difference”. In addition, the “decrease in membrane fluidity” value in data set [4] (2.5 µM) was ~20%; in [4] (5 µM) it was “about 50%”. Further, in data set [11], the “toxicity profile in clinical trials and long-term treatments” value is “low-toxicity profile”. Further, the “day 6 mean peak plasma concentration” value in data set [11] (oral powder, 1,500 mg/m^2 per day, patients with relapsed/refractory neuroblastoma) was 21 µM.
For the molecule `CN(C)CCC=C1c2ccccc2CCc2ccccc21` [Amitriptyline], in data set [1], the antimembrane fusion activity entry is recorded as “little or no antimembrane fusion activity”. Further, the EC50 in data set [1] (setting [12]) is > 40 µM. Besides, the CC50 in the data set “in vitro” is > 40 µM. Further, the cell viability entry in [2] is “unaffected”.
With `Oc1ccc(Nc2nc(-c3ccc(Cl)cc3)cs2)cc1` [SKI-II], in data set [1], the EC50 is > 10 µM and the antimembrane fusion activity result is on record as “little or no antimembrane fusion activity”. Besides, in [2], the CC50 is > 40 µM and the “concentration above which cytotoxicity was exhibited” value is reported as “above 20 µM”.
In the case of `COc1ccc(/C=C/C(=O)c2c(-c3ccccc3)c3ccccc3[nH]c2=O)cc1` [Ceranib-2], in data set [1], the EC50 was > 1.3 µM and the antimembrane fusion activity entry is on record as “little or no antimembrane fusion activity”. In [2], the CC50 came out at 26.9 µM and the “concentration above which cytotoxicity was exhibited” value is “above 2.5 µM”.
For `O=C(/C=C/c1ccc(/C=C/C(=O)Nc2ccc(C3=NCCN3)cc2)cc1)Nc1ccc(C2=NCCN2)cc1` [GW4869], in data set [1], the EC50 is > 10 µM and the antimembrane fusion activity result is “little or no antimembrane fusion activity”. Further, in data set [2], the CC50 is > 40 µM and the “concentration above which cytotoxicity was exhibited” value is on record as “above 20 µM”.
Molecule `CCCCCCCCCCCCCCCC(=O)NC(CN1CCOCC1)C(O)c1ccccc1` (stereo not drawn) [erythro-PPMP] yielded an EC50 in [1] of 9.1 µM. Also, the CC50 in data set [2] is 35.8 µM. Further, in data set [6] (10 µM, compared to DMSO-treated cells), the “levels of GlcCer” value is listed as “decreased”.

Values taken from publication PMC8354230 (Journal of Virology, 2021).
